Data taken from the supplement of paper PMC10307832.

Assays:
Assay in all cases: relative viability (nuclei count vs DMSO), 5 days (fraction); higher = more cells survive
[1] = compound: CCCS(=O)(=O)Nc1ccc(F)c(C(=O)c2c[nH]c3ncc(-c4ccc(Cl)cc4)cc23)c1F [Vemurafenib] + CC(=O)c1c(C)c2cnc(Nc3ccc(N4CCNCC4)cn3)nc2n(C2CCCC2)c1=O [Palbociclib] (partner 0.5 µM)
In short: (§1)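 Relative viability is defined as nuclei in treated wells over nuclei in vehicle wells. Duplicate plates were run and medians reported. Lung cancer cell lines in 1536-well plates were dosed by pin tool one day after seeding, with one drug or with a fixed anchor-drug dose plus five library-drug doses (not always all listed) in √10 steps, and nuclei were counted after 5 days.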

Alpelisib + Pictilisib = compound: Cc1nc(NC(=O)N2CCC[C@H]2C(N)=O)sc1-c1ccnc(C(C)(C)C(F)(F)F)c1 [Alpelisib] + CS(=O)(=O)N1CCN(Cc2cc3nc(-c4cccc5[nH]ncc45)nc(N4CCOCC4)c3s2)CC1 [Pictilisib] (partner 1 µM)
In short: as §1

Alpelisib + Linsitinib = compound: Cc1nc(NC(=O)N2CCC[C@H]2C(N)=O)sc1-c1ccnc(C(C)(C)C(F)(F)F)c1 [Alpelisib] + C[C@]1(O)C[C@@H](c2nc(-c3ccc4ccc(-c5ccccc5)nc4c3)c3c(N)nccn32)C1 [Linsitinib] (partner 1 µM)
In short: as §1

Alpelisib + Dasatinib = compound: Cc1nc(NC(=O)N2CCC[C@H]2C(N)=O)sc1-c1ccnc(C(C)(C)C(F)(F)F)c1 [Alpelisib] + Cc1nc(Nc2ncc(C(=O)Nc3c(C)cccc3Cl)s2)cc(N2CCN(CCO)CC2)n1 [Dasatinib] (partner 0.075 µM)
In short: as §1

Cell Line	relative viability ([1]; first compound 0.03162 µM)	relative viability ([1]; first compound 0.1 µM)	relative viability ([1]; first compound 0.3162 µM)	relative viability ([1]; first compound 1 µM)	relative viability (Alpelisib + Pictilisib; first compound 0.04 µM)	relative viability (Alpelisib + Pictilisib; first compound 0.1265 µM)	relative viability (Alpelisib + Pictilisib; first compound 0.4 µM)	relative viability (Alpelisib + Pictilisib; first compound 1.265 µM)	relative viability (Alpelisib + Pictilisib; first compound 4 µM)	relative viability (Alpelisib + Linsitinib; first compound 0.04 µM)	relative viability (Alpelisib + Linsitinib; first compound 0.1265 µM)	relative viability (Alpelisib + Linsitinib; first compound 0.4 µM)	relative viability (Alpelisib + Linsitinib; first compound 1.265 µM)	relative viability (Alpelisib + Linsitinib; first compound 4 µM)	relative viability (Alpelisib + Dasatinib; first compound 0.04 µM)	relative viability (Alpelisib + Dasatinib; first compound 0.4 µM)	relative viability (Alpelisib + Dasatinib; first compound 1.265 µM)	relative viability (Alpelisib + Dasatinib; first compound 4 µM)	relative viability (Alpelisib + Dasatinib; first compound 0.1265 µM)
NCI-H1734	0.344	0.335	0.343	0.317	0.472	0.427	0.494	0.397	0.343	0.814	0.885	0.875	0.71	0.489	0.42	0.394	0.244	0.208	
NCI-H1755	0.459	0.43	0.431	0.434	0.451	0.309	0.427	0.456	0.363	1.01	0.941	1.03	0.978	0.764	0.382	0.418	0.327	0.228	0.415
NCI-H1792	0.623	0.581		0.643	0.227	0.306	0.309	0.253	0.206	0.505	0.566	0.619	0.539	0.38	0.723	0.736	0.485	0.336	0.83
NCI-H1793	0.287	0.226	0.303	0.344	0.363	0.486	0.432	0.328	0.314	0.596	1.19	0.997	0.692	0.525	0.299	0.525	0.356	0.351	0.379
NCI-H1915	0.526	0.496	0.554	0.487	0.925	0.987	1.02	0.908	0.766	1.11	1.1	1.17	1.02	1.08	0.29	0.313	0.268	0.276	0.28
NCI-H1944	0.332		0.313	0.385	0.331	0.386	0.349	0.344	0.336	0.985	1.2	1.17	0.858	0.543	0.208	0.203	0.163	0.144	0.217
NCI-H1975	0.553	0.471	0.41	0.382	0.28	0.297	0.299	0.273	0.248	0.96	0.915	0.91	0.67	0.548	0.322	0.329	0.176	0.112	0.309
NCI-H1993	0.63		0.703	0.54	0.825	0.803	0.767	0.696	0.918	0.732	0.737	0.762	0.702	0.749	0.532	0.508	0.454	0.569	0.469
NCI-H2009	0.175	0.172	0.161	0.199	0.805	0.773	1.02	0.767	0.52	1.2	1.12	1.27	1.19	1.12	0.309	0.353	0.223	0.198	0.281
